Experimental data from the NIST ThermoML archive (doi:10.1016/j.jct.2004.12.002).
± gives the expanded uncertainty stated by the source.

How the values were obtained:
[1] = xn = mol fraction of the nth substance listed; settings: 101 kPa, Liquid
[2] = 101 kPa, Liquid

CCCCCCC [heptane] + CCO
mass density [kg/m3], [1]
Settings | 293.21 K | 293.22 K | 298.16 K | 298.17 K | 303.17 K | 308.17 K | 313.17 K | 318.17 K | 318.18 K
x2 = 0 | – | 683.82 ± 0.65 | 679.75 ± 0.65 | – | 675.51 ± 0.66 | 671.21 ± 0.67 | 666.97 ± 0.67 | – | 662.67 ± 0.68
x2 = 0.0237 | – | 684.36 ± 0.65 | – | 680.19 ± 0.65 | 675.81 ± 0.66 | 671.53 ± 0.66 | 667.19 ± 0.67 | 663.59 ± 0.68 | –
x2 = 0.0507 | – | 685.26 ± 0.64 | – | 681.04 ± 0.65 | 676.65 ± 0.66 | 672.35 ± 0.66 | 667.92 ± 0.67 | – | 662.82 ± 0.68
x2 = 0.1041 | – | 687.27 ± 0.64 | – | 683.06 ± 0.65 | 678.74 ± 0.65 | 674.32 ± 0.66 | 669.78 ± 0.67 | 665.46 ± 0.67 | –
x2 = 0.2043 | 691.74 ± 0.63 | – | – | 687.5 ± 0.64 | 683.12 ± 0.64 | 678.62 ± 0.65 | 674.12 ± 0.66 | 669.66 ± 0.66 | –
x2 = 0.3044 | 697.14 ± 0.62 | – | – | 692.93 ± 0.63 | 688.45 ± 0.63 | 683.9 ± 0.64 | 679.46 ± 0.65 | 674.88 ± 0.65 | –
x2 = 0.3971 | 703.04 ± 0.61 | – | – | 698.76 ± 0.62 | 694.32 ± 0.62 | 689.82 ± 0.63 | 685.29 ± 0.64 | 680.74 ± 0.64 | –
x2 = 0.4975 | 710.62 ± 0.6 | – | – | 706.35 ± 0.6 | 701.88 ± 0.61 | 697.41 ± 0.62 | 692.92 ± 0.62 | 688.34 ± 0.63 | –
x2 = 0.6043 | – | 720.54 ± 0.58 | – | 716.27 ± 0.59 | 711.77 ± 0.59 | 707.35 ± 0.6 | 702.8 ± 0.61 | 698.25 ± 0.61 | –
x2 = 0.6954 | 730.78 ± 0.57 | – | – | 726.58 ± 0.57 | 722.09 ± 0.58 | 717.65 ± 0.58 | 713.21 ± 0.59 | 708.71 ± 0.59 | –
x2 = 0.8023 | 745.94 ± 0.54 | – | – | 741.81 ± 0.54 | 737.39 ± 0.55 | 733.18 ± 0.56 | 728.57 ± 0.57 | 724.14 ± 0.57 | –
x2 = 0.9009 | 764.36 ± 0.51 | – | – | 760.18 ± 0.51 | 755.87 ± 0.52 | 751.57 ± 0.53 | 747.21 ± 0.53 | 742.91 ± 0.54 | –
x2 = 0.9531 | – | 776.53 ± 0.49 | – | 772.37 ± 0.49 | 768.14 ± 0.5 | 763.83 ± 0.51 | 759.41 ± 0.51 | – | 754.95 ± 0.52

CCO [ethanol]
[2]
Settings | mass density [kg/m3]
293.22 K | 789.54 ± 0.47
298.16 K | 785.46 ± 0.47
303.17 K | 781.05 ± 0.48
308.17 K | 776.75 ± 0.49
313.17 K | 772.42 ± 0.49
318.18 K | 768 ± 0.5

CCCCCCC [heptane]
[2]
Settings | mass density [kg/m3]
293.22 K | 683.82 ± 0.65
298.16 K | 679.75 ± 0.65
303.17 K | 675.51 ± 0.66
308.17 K | 671.21 ± 0.67
313.17 K | 666.97 ± 0.67
318.18 K | 662.67 ± 0.68

CCO [ethanol] + CCCCCCC
[1], x1 = 1
Settings | mass density [kg/m3]
293.22 K | 789.54 ± 0.47
298.16 K | 785.46 ± 0.47
303.17 K | 781.05 ± 0.48
308.17 K | 776.75 ± 0.49
313.17 K | 772.42 ± 0.49
318.18 K | 768 ± 0.5
